Measurements published in paper PMC7450530 (Biochemistry, 2019).

Key:
[1] = biological target: T1, M. tuberculosis GyrA^A90V gyrase (Mycobacterium tuberculosis, UniProt P9WG47, A90V); assay type: biochemical
[2] = biological target: T1, M. tuberculosis GyrA^A90V gyrase; assay type: biochemical; remark: listed apart in the source

CC[C@H](C)n1cc(C)c2c(C(=O)NCc3c(C)cc(C)[nH]c3=O)cc(-c3ccc(N4CCNCC4)nc3)cc21 [GSK126]
potency in supercoiling inhibition compared to the wild-type enzyme [1]: potency dropped considerably
single-stranded DNA cleavage enhancement compared to wild-type [2]: induced substantially more single-stranded DNA cleavage
